Source: ChEMBL document CHEMBL3045610, “Pyridoquinolones containing azetidinones: synthesis and their biological evaluation” (2012)
In brackets after ≈: the same amount, converted by molar mass.

Assays:
Type in all cases: functional
Candida albicans = assay: Antifungal activity against Candida albicans by broth dilution method
Aspergillus niger = assay: Antifungal activity against Aspergillus niger by broth dilution method
Aspergillus clavatus = assay: Antifungal activity against Aspergillus clavatus by broth dilution method
Staphylococcus aureus = assay: Antibacterial activity against Staphylococcus aureus by broth dilution method
Escherichia coli = assay: Antibacterial activity against Escherichia coli by broth dilution method
Pseudomonas aeruginosa = assay: Antibacterial activity against Pseudomonas aeruginosa by broth dilution method
Streptococcus pyogenes = assay: Antibacterial activity against Streptococcus pyogenes by broth dilution method
[1] = system: Mycobacterium tuberculosis; assay: Antimicrobial activity against Mycobacterium tuberculosis H37Rv by broth dilution method

Row | Molecule | MIC (Candida albicans) [µg/mL] | MIC (Aspergillus niger) [µg/mL] | MIC (Aspergillus clavatus) [µg/mL] | MIC (Staphylococcus aureus) [µg/mL] | MIC (Escherichia coli) [µg/mL] | MIC (Pseudomonas aeruginosa) [µg/mL] | MIC (Streptococcus pyogenes) [µg/mL] | MIC [1] [µg/mL]
1 | COc1ccc(/C=N/NC(=O)c2c[nH]c3c(ccc4nc(Cl)cc(C)c43)c2=O)cc1 | 500 (≈ 1190 µM) | 500 (≈ 1190 µM) | 500 (≈ 1190 µM) | 500 (≈ 1190 µM) | 250 (≈ 594 µM) | 500 (≈ 1190 µM) | 500 (≈ 1190 µM) | –
2 | Cc1cc(Cl)nc2ccc3c(=O)c(C(=O)NN4C(=O)C(Cl)C4c4cc([N+](=O)[O-])ccc4O)c[nH]c3c12 (configuration not stated) | 250 (≈ 473 µM) | 500 (≈ 946 µM) | 500 (≈ 946 µM) | 500 (≈ 946 µM) | 250 (≈ 473 µM) | 500 (≈ 946 µM) | 500 (≈ 946 µM) | –
3 | CCn1cc(C(=O)O)c(=O)c2cc(F)c(N3CCNCC3)cc21 [NORFLOXACIN] | – | – | – | 10 (≈ 31.3 µM) | 10 (≈ 31.3 µM) | 10 (≈ 31.3 µM) | 10 (≈ 31.3 µM) | –
4 | O=C(N[C@H](CO)[C@H](O)c1ccc([N+](=O)[O-])cc1)C(Cl)Cl [CHLORAMPHENICOL] | – | – | – | 50 (≈ 155 µM) | 50 (≈ 155 µM) | 50 (≈ 155 µM) | 50 (≈ 155 µM) | –
5 | NYSTATIN | 100 | 100 | 100 | – | – | – | – | –
6 | COc1ccc(C2C(Cl)C(=O)N2NC(=O)c2c[nH]c3c(ccc4nc(Cl)cc(C)c43)c2=O)cc1 (configuration not stated) | 500 (≈ 1010 µM) | > 1000 | > 1000 | 500 (≈ 1010 µM) | 250 (≈ 503 µM) | 250 (≈ 503 µM) | 500 (≈ 1010 µM) | –
7 | COC1=CC(=O)C[C@@H](C)[C@]12Oc1c(Cl)c(OC)cc(OC)c1C2=O [GRISEOFULVIN] | 500 (≈ 1420 µM) | 100 (≈ 283 µM) | 100 (≈ 283 µM) | – | – | – | – | –
8 | COc1cc(/C=N/NC(=O)c2c[nH]c3c(ccc4nc(Cl)cc(C)c43)c2=O)ccc1O | 250 (≈ 572 µM) | 1000 (≈ 2290 µM) | 1000 (≈ 2290 µM) | 100 (≈ 229 µM) | 500 (≈ 1140 µM) | 500 (≈ 1140 µM) | 200 (≈ 458 µM) | 500 (≈ 1140 µM)
9 | Cc1cc(Cl)nc2ccc3c(=O)c(C(=O)N/N=C/c4ccccc4)c[nH]c3c12 | 250 (≈ 640 µM) | > 1000 | > 1000 | 200 (≈ 512 µM) | 250 (≈ 640 µM) | 250 (≈ 640 µM) | 250 (≈ 640 µM) | –
10 | Cc1cc(Cl)nc2ccc3c(=O)c(C(=O)N/N=C/c4cccc([N+](=O)[O-])c4O)c[nH]c3c12 | 200 (≈ 443 µM) | 500 (≈ 1110 µM) | 500 (≈ 1110 µM) | 500 (≈ 1110 µM) | 150 (≈ 332 µM) | 200 (≈ 443 µM) | 500 (≈ 1110 µM) | 62.5 (≈ 138 µM)
11 | NNC(=O)c1ccncc1 [ISONIAZID] | – | – | – | – | – | – | – | 0.2 (≈ 1.46 µM)
12 | Cc1cc(Cl)nc2ccc3c(=O)c(C(=O)NN4C(=O)C(Cl)C4c4cccc([N+](=O)[O-])c4O)c[nH]c3c12 (configuration not stated) | 500 (≈ 946 µM) | > 1000 | > 1000 | 500 (≈ 946 µM) | 62.5 (≈ 118 µM) | 200 (≈ 379 µM) | 500 (≈ 946 µM) | 200 (≈ 379 µM)
13 | Cc1ccc(/C=N/NC(=O)c2c[nH]c3c(ccc4nc(Cl)cc(C)c43)c2=O)cc1 | 250 (≈ 618 µM) | 500 (≈ 1240 µM) | 500 (≈ 1240 µM) | 250 (≈ 618 µM) | 200 (≈ 494 µM) | 250 (≈ 618 µM) | 250 (≈ 618 µM) | –
14 | CCOC(=O)c1c[nH]c2c(ccc3nc(Cl)cc(C)c32)c1=O | 200 (≈ 631 µM) | 1000 (≈ 3160 µM) | 1000 (≈ 3160 µM) | 150 (≈ 474 µM) | 250 (≈ 789 µM) | 250 (≈ 789 µM) | 100 (≈ 316 µM) | 500 (≈ 1580 µM)
15 | Cc1cc(Cl)nc2ccc3c(=O)c(C(=O)N/N=C/c4ccccc4O)c[nH]c3c12 | 100 (≈ 246 µM) | 500 (≈ 1230 µM) | 500 (≈ 1230 µM) | 100 (≈ 246 µM) | 250 (≈ 615 µM) | 250 (≈ 615 µM) | 200 (≈ 492 µM) | 200 (≈ 492 µM)
16 | O=C(O)c1cn(C2CC2)c2cc(N3CCNCC3)c(F)cc2c1=O [CIPROFLOXACIN] | – | – | – | 50 (≈ 151 µM) | 25 (≈ 75.4 µM) | – | 50 (≈ 151 µM) | –
17 | CC1(C)S[C@@H]2[C@H](NC(=O)[C@H](N)c3ccccc3)C(=O)N2[C@H]1C(=O)O [AMPICILLIN] | – | – | – | 250 (≈ 715 µM) | 100 (≈ 286 µM) | 100 (≈ 286 µM) | 100 (≈ 286 µM) | –
18 | COc1ccccc1C1C(Cl)C(=O)N1NC(=O)c1c[nH]c2c(ccc3nc(Cl)cc(C)c32)c1=O (configuration not stated) | 250 (≈ 503 µM) | > 1000 | > 1000 | 250 (≈ 503 µM) | 500 (≈ 1010 µM) | 1000 (≈ 2010 µM) | 500 (≈ 1010 µM) | –
19 | Cc1ccc(C2C(Cl)C(=O)N2NC(=O)c2c[nH]c3c(ccc4nc(Cl)cc(C)c43)c2=O)cc1 (configuration not stated) | 200 (≈ 416 µM) | > 1000 | > 1000 | 250 (≈ 519 µM) | 250 (≈ 519 µM) | 250 (≈ 519 µM) | 250 (≈ 519 µM) | –
20 | Cc1cc(Cl)nc2ccc3c(=O)c(C(=O)NN4C(=O)C(Cl)C4c4ccccc4Cl)c[nH]c3c12 (configuration not stated) | 100 (≈ 199 µM) | 250 (≈ 498 µM) | 250 (≈ 498 µM) | 200 (≈ 399 µM) | 200 (≈ 399 µM) | 250 (≈ 498 µM) | 200 (≈ 399 µM) | –
21 | COc1cc(C2C(Cl)C(=O)N2NC(=O)c2c[nH]c3c(ccc4nc(Cl)cc(C)c43)c2=O)ccc1O (configuration not stated) | 1000 (≈ 1950 µM) | 500 (≈ 974 µM) | 500 (≈ 974 µM) | 1000 (≈ 1950 µM) | 250 (≈ 487 µM) | 500 (≈ 974 µM) | 1000 (≈ 1950 µM) | –
22 | Cc1cc(Cl)nc2ccc3c(=O)c(C(=O)N/N=C/c4ccc(Cl)cc4)c[nH]c3c12 | 500 (≈ 1180 µM) | 250 (≈ 588 µM) | 250 (≈ 588 µM) | 250 (≈ 588 µM) | 500 (≈ 1180 µM) | 1000 (≈ 2350 µM) | 250 (≈ 588 µM) | –
23 | Cc1cc(Cl)nc2ccc3c(=O)c(C(=O)NN4C(=O)C(Cl)C4c4ccccc4O)c[nH]c3c12 (configuration not stated) | 500 (≈ 1030 µM) | 1000 (≈ 2070 µM) | 1000 (≈ 2070 µM) | 500 (≈ 1030 µM) | 100 (≈ 207 µM) | 200 (≈ 414 µM) | 500 (≈ 1030 µM) | 500 (≈ 1030 µM)
24 | Cc1cc(Cl)nc2ccc3c(=O)c(C(=O)NN4C(=O)C(Cl)C4c4ccc(Cl)cc4)c[nH]c3c12 (configuration not stated) | 200 (≈ 399 µM) | 500 (≈ 996 µM) | 500 (≈ 996 µM) | 500 (≈ 996 µM) | 100 (≈ 199 µM) | 100 (≈ 199 µM) | 500 (≈ 996 µM) | 100 (≈ 199 µM)
25 | Cc1cc(Cl)nc2ccc3c(=O)c(C(=O)N/N=C/c4ccccc4Cl)c[nH]c3c12 | 250 (≈ 588 µM) | 500 (≈ 1180 µM) | > 1000 | 100 (≈ 235 µM) | 500 (≈ 1180 µM) | 500 (≈ 1180 µM) | 200 (≈ 470 µM) | –
26 | COc1ccccc1/C=N/NC(=O)c1c[nH]c2c(ccc3nc(Cl)cc(C)c32)c1=O | 500 (≈ 1190 µM) | 1000 (≈ 2380 µM) | 1000 (≈ 2380 µM) | 250 (≈ 594 µM) | 100 (≈ 238 µM) | 250 (≈ 594 µM) | 250 (≈ 594 µM) | 250 (≈ 594 µM)
27 | Cc1cc(Cl)nc2ccc3c(=O)c(C(=O)N/N=C/c4cc([N+](=O)[O-])ccc4O)c[nH]c3c12 | 200 (≈ 443 µM) | 1000 (≈ 2210 µM) | 1000 (≈ 2210 µM) | 200 (≈ 443 µM) | 62.5 (≈ 138 µM) | 100 (≈ 221 µM) | 250 (≈ 553 µM) | 500 (≈ 1110 µM)
28 | Cc1cc(Cl)nc2ccc3c(=O)c(C(=O)NN)c[nH]c3c12 | 500 (≈ 1650 µM) | > 1000 | > 1000 | 250 (≈ 826 µM) | 100 (≈ 330 µM) | 200 (≈ 661 µM) | 200 (≈ 661 µM) | 200 (≈ 661 µM)
29 | Cc1cc(Cl)nc2ccc3c(=O)c(C(=O)NN4C(=O)C(Cl)C4c4ccccc4)c[nH]c3c12 (configuration not stated) | 500 (≈ 1070 µM) | > 1000 | > 1000 | 250 (≈ 535 µM) | 100 (≈ 214 µM) | 250 (≈ 535 µM) | 250 (≈ 535 µM) | 250 (≈ 535 µM)
